According to patent publication US9556202B2, “Sulfonamide derivatives and methods of use thereof for improving the pharmacokinetics of a drug” (MERCK SHARP & DOHME CORP., priority 2012, dated 2017):

Columns and labels:
human CYP11B2 = molecular target: T1, human CYP11B2 (Homo sapiens, UniProt P19099); assay: IC50 vs CYP11B2 by aldosterone synthesis in V79 cells (HTRF); format: cell-based; details: V79 cells expressing human CYP11B2, 750 nM DOC, test conc. 0.5-10000 nM, unit inferred
T1 construct: expressed in transfected cells
T1 sequence (P19099 25-503): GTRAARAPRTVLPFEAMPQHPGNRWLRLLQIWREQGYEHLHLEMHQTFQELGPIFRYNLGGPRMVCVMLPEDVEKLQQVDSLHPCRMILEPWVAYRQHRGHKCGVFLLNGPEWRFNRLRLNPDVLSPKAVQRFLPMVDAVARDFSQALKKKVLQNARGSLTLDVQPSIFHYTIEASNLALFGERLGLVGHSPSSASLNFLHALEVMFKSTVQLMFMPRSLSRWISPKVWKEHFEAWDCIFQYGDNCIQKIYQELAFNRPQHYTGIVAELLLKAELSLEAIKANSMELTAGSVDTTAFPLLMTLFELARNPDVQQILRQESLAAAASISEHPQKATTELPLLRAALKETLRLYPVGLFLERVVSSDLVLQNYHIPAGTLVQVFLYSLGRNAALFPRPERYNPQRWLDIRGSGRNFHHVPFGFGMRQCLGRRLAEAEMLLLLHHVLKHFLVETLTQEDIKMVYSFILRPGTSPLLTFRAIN
Experimental: (§1) Determination of IC50 Vs CYP11B1/CYP11B2 by Measurement of Cortisol/Aldosterone Synthesis
(§2) This assay was performed in a standard 384-well plate design using cultured V79 cells stably expressing human CYP11B1 or human CYP11B2. Test compounds at 10 concentrations (for example, 10000, 3333.3, 1111.1, 370.4, 123.5, 41.2, 13.7, 4.6, 1.5 and 0.5 nM) were added in 384-well plate after the cell-seeding procedure. The incubation substrate contains 1500 nM RSS for CYP11B1 assay/750 nM DOC for CYP11B2 assay. The Cortisol/Aldosterone production of cell culture supernatant was determined by Cortisol/Aldosterone HTRF kit after for about 15 hours incubation at RT (protect from light). IC50 values were calculated from the percent inhibition observed for each test compound at 10 concentrations.
(§3) The assay plate was read using Envision (Perkin Elmer, Waltham, Mass.) at 665 nm and 590 nm (using Filter Barcode of 217#, 205#; Mirror Barcode of 446#).
(§4) Data are analyzed using Assay Data Analyzer. All ratio data (665 nm/590 nm) are back calculated according to the standard curve, resulting in Cortisol/Aldosterone concentrations. IC50 values are reported as the Inflection Point (IP) of a four parameter fit of the titration data.
(§5) The following equation was used to calculate the % inhibition: % Activity=100×{1−(Sample_back calculated Cortisol/Aldosterone concentration−LC_back calculated Cortisol/Aldosterone concentration)/(HC_back calculated Cortisol/Aldosterone concentration−LC_back calculated Cortisol/Aldosterone concentration)} Curve Fitting: Four Parameter Logistic: […]

CYP2D6 = molecular target: T2, CYP2D6 (Homo sapiens, UniProt P10635); assay: Cocktail CYP inhibition assay in human liver microsomes, dextromethorphan O-demethylation; format: in vitro ADME; details: human liver microsomes 0.1 mg/mL, 5 μM dextromethorphan, 10 min 37° C.; unit inferred
T2 construct: 0.1 mg/mL protein human liver microsomes (BD Gentest); tissue BD Gentest; host or cells: human liver microsomes
Experimental: (§6) Determination of IC50 in a Cocktail Assay for CYPs 1A2, 2C9, 2C19, 2D6 and 3A4
(§7) This assay was performed in a standard 96-well plate design. IC50 values were calculated from the percent inhibition observed for each test compound at 6 concentrations (for example, 0.0032, 0.016, 0.08, 0.4, 2 and 10 μM). The incubation substrate mix contains 10 μM phenacetin (1A2), 5 μM diclofenac (2C9), 30 μM mephenytoin (2C19), 5 μM dextromethorphan (2D6) and 2 μM midazolam (3A4), 0.1 mg/mL protein human liver microsomes (BD Gentest), 1 mM NAPDH, 3.3 mM MgCl2 and 100 mM potassium phosphate buffer (pH 7.4). The production of the metabolite of each probe substrate was determined after incubation for 10 min at 37° C. Quantitation of the metabolite peak area ratio against an internal standard (tolbutamide) was determined by LC/MS/MS analysis following acetonitrile treatment of the incubations.
(§8) Samples were analyzed in the MRM mode with a SCIEX API-4000 mass spectrometer (Applied Biosystems, Foster City, Calif.), with a Shimadzu LC-20 AD pump (Shimadzu corporation, Kyoto, JP) and a CTC PAL autosampler (Agilent Technologies, Switzerland). A Phenomenex, Luna, 5 μm, 100 A, 2.00×30 mm HPLC column was used for the separation. The mobile phases were: (A) 0.1% formic acid in water and (B) 0.1% formic acid in acetonitrile. The binary gradient was as follows.
(§9) The peak area ratio of the analyte to the internal standard was used to quantify the metabolite. The values of peak area ratios in the presence of test compound were compared to those of maximum or minimum controls and were expressed as % inhibition by interpolating between the maximum and minimum peak area ratios. Incubations with no inhibitor were defined as the maxima.
(§10) The following equation was used to calculate the % inhibition: [1−[(X−Low control)/(High control−Low control)]]*100
(§11) For the IC50 calculation, SigmaPlot was used to plot the mean % inhibition versus the test compound concentrations and for non-linear regression analysis of the data. […]

human CYP11B1 = molecular target: T3, human CYP11B1 (Homo sapiens, UniProt P15538); assay: IC50 vs CYP11B1 by cortisol synthesis in V79 cells (HTRF); format: cell-based; details: V79 cells expressing human CYP11B1, 1500 nM RSS, test conc. 0.5-10000 nM, unit inferred
T3 construct: expressed in transfected cells
T3 sequence (P15538 25-503): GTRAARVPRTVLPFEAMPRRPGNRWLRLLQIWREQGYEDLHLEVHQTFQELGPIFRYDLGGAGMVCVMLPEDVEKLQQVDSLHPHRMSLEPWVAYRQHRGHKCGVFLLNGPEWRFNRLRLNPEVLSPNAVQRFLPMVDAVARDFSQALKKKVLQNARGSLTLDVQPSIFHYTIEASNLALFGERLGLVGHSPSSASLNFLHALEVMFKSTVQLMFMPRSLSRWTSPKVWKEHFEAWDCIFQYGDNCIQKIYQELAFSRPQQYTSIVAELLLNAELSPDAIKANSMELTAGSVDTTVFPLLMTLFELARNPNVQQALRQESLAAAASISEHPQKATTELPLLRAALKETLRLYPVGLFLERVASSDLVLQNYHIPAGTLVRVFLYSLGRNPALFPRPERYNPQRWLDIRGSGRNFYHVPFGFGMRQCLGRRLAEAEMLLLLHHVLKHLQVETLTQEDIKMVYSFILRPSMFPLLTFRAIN
Experimental: as §1, §2, §3, §4, §5

CYP2C9 = molecular target: T4, CYP2C9 (Homo sapiens, UniProt P11712); assay: Cocktail CYP inhibition assay in human liver microsomes, diclofenac 4'-hydroxylation; format: in vitro ADME; details: human liver microsomes 0.1 mg/mL, 5 μM diclofenac, 10 min 37° C.; unit inferred
T4 construct: 0.1 mg/mL protein human liver microsomes (BD Gentest); tissue BD Gentest; host or cells: human liver microsomes
Experimental: as §6, §7, §8, §9, §10, §11

T4 sequence (P11712 whole entry): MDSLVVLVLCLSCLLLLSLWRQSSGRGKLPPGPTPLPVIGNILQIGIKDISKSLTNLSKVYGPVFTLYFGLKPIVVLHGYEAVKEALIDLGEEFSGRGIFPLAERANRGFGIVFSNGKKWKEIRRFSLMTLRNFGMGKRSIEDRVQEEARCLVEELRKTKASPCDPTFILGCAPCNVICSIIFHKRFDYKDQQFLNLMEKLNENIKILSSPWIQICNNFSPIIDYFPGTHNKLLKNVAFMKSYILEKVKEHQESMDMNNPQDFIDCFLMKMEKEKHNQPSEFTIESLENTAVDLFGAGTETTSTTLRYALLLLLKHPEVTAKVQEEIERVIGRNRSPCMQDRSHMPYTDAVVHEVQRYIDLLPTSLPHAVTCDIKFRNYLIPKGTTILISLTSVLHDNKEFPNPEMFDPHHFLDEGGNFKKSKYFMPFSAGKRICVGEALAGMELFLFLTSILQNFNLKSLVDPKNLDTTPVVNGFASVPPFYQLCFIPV
T2 sequence (P10635 whole entry): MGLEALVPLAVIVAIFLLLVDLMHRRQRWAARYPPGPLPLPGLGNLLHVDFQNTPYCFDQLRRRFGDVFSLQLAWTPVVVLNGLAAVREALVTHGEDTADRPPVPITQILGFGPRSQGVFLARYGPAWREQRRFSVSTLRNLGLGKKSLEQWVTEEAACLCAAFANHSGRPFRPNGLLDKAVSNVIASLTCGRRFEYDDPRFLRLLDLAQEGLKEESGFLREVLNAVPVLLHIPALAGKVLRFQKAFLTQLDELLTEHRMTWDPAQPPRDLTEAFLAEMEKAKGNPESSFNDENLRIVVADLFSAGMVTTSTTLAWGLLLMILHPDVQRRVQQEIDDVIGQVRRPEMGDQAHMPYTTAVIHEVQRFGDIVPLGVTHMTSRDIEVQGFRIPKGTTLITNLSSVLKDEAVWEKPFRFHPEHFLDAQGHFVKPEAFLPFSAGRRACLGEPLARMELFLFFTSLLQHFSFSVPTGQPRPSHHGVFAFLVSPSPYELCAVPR

Row | IC50 (human CYP11B2) | IC50 (CYP2D6) | IC50 (human CYP11B1) | IC50 (CYP2C9) | Structure (SMILES)
1 | 5 µM | 8.89 µM | 2.18 µM | > 10 µM | COCC(c1cncn1[C@H](C)c1ccc(F)cc1)N1CCN(S(=O)(=O)c2cnc(N3CCN(C)CC3)s2)CC1 (single isomer, unassigned) [Compound 35]
2 | 3.83 µM | 4.08 µM | 1.35 µM | > 10 µM | COCCC(c1cncn1[C@H](C)c1ccc(F)cc1)N1CCN(S(=O)(=O)c2cnc(N3CCN(C)CC3)s2)CC1 (single isomer, unassigned) [Compound 36]
3 | 1.31 µM | 7.13 µM | 2.14 µM | 1.22 µM | C[C@H](c1ccc(F)cc1)n1cncc1C1CCCC2CN(S(=O)(=O)c3cnc(Nc4ccccn4)s3)CCN21 (single isomer, unassigned) [Compound 38]
